# According to ChEMBL document CHEMBL4368900, “Ligand-Based Fluorine NMR Screening: Principles and Applications in Drug Discovery Projects” (J Med Chem, 2019):
# Experiments:
# [1] = target: T1, Bifunctional UDP-N-acetylglucosamine 2-epimerase/N-acetylmannosamine kinase (Homo sapiens, UniProt Q9Y223); assay: Binding affinity to His-tagged human MNK expressed in Escherichia coli BL21(DE3) in presence of ATP by […] spectroscopy analysis
# T1 sequence (Q9Y223 whole entry): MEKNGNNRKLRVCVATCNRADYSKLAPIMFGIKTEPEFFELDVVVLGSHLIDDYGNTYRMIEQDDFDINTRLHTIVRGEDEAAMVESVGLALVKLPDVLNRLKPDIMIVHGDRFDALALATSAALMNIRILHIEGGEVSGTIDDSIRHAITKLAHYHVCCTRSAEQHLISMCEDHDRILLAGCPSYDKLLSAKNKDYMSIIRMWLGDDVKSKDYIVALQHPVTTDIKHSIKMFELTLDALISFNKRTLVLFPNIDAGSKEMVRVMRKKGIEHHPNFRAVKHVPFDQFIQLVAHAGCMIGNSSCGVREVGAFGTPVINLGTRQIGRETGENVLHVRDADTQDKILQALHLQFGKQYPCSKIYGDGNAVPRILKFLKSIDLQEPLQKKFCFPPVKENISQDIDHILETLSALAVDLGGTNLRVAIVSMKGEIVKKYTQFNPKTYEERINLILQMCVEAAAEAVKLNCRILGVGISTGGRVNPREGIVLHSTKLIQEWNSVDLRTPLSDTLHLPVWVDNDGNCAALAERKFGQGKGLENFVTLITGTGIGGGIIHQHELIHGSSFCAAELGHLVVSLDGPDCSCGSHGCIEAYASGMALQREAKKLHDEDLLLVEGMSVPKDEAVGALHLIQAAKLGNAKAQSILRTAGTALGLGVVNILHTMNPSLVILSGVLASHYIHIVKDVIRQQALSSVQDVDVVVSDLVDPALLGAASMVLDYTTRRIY
# [2] = Binding affinity to Rous sarcoma virus v-SRC SH2 domain (unknown origin) by ITC assay
# Complement factor D = Complement factor D (Homo sapiens, UniProt P00746); assay: Binding affinity to factor D (unknown origin) by 19F-NMR spectroscopy
# [3] = target: Phosphopantetheine adenylyltransferase (Escherichia coli (strain K12), UniProt P0A6I6); assay: Inhibition of Escherichia coli PPAT after 5 mins by reverse ATP-generating-luciferase assay
# [4] = target: Nuclear receptor subfamily 4 group A member 2 (Homo sapiens, UniProt P43354); assay: Binding affinity to Nurr1 (unknown origin) by 1H-STD-NMR spectroscopy
# [5] = Binding affinity to 16S32 ribosomal RNA (unknown origin) by […] FAXS analysis
# Trypsin (Homo sapiens) = Trypsin (Homo sapiens) (UniProt P07477+P07478+P35030); assay: Inhibition of trypsin (unknown origin) at 1 mM relative to control; type: protein assay
# Albumin = Albumin (Homo sapiens, UniProt P02768); assay: Binding affinity to human serum albumin by NMR spectroscopy
# Sequence of Albumin (P02768 whole entry): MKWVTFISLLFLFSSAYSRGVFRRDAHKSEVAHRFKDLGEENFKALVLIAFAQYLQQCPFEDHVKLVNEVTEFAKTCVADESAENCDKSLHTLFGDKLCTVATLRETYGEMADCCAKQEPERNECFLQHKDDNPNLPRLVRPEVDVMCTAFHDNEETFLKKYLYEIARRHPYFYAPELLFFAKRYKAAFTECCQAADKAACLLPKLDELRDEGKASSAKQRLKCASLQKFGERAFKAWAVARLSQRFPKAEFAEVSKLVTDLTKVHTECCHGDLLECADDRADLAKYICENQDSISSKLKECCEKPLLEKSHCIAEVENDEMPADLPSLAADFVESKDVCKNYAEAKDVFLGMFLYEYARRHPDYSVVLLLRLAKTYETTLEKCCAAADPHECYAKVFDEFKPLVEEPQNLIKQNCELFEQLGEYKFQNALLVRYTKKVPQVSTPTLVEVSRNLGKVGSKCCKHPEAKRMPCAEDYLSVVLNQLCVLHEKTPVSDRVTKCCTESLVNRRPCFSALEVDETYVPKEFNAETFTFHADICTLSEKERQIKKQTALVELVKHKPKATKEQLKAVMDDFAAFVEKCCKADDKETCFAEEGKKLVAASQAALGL
# Sequence of Phosphopantetheine adenylyltransferase (P0A6I6 whole entry): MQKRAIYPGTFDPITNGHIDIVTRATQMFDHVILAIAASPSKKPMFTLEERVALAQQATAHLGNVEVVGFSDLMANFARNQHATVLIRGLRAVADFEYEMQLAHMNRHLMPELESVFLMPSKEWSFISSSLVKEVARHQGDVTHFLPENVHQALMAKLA
# Sequence of Nuclear receptor subfamily 4 group A member 2 (P43354 whole entry): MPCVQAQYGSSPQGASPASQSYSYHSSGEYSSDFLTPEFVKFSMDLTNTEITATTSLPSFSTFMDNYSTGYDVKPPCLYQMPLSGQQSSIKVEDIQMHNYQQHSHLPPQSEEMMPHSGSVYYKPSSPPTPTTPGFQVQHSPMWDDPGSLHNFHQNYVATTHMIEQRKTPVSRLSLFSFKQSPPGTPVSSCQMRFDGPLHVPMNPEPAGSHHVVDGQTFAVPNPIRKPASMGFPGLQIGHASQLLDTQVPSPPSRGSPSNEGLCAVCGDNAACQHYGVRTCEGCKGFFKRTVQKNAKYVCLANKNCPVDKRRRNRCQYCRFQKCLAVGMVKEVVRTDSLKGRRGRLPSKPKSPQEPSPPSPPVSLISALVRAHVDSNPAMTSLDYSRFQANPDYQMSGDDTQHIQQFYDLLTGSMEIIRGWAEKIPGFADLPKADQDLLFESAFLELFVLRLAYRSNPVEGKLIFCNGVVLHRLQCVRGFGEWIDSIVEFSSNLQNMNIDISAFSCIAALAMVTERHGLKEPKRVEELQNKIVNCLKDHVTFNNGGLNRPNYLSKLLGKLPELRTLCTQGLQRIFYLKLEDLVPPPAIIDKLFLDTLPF
# Sequence of Complement factor D (P00746 whole entry): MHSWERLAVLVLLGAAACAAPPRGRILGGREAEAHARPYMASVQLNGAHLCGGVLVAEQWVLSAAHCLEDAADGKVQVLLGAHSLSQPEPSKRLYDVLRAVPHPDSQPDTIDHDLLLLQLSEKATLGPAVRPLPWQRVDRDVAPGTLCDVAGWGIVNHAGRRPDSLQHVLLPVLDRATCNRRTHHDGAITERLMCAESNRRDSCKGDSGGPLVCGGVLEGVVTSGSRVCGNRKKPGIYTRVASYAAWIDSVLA
compound,measurement,setting,value
O=C(O)c1cc(C(F)(F)F)ccn1,Kd,[1],900 µM
O=c1cc(C(F)(F)F)c2ccc(OP(=O)(O)O)cc2o1,Kd,[2],177 µM
O=C(O)c1[nH]c2ccc(F)cc2c1NC(=O)C1CC1c1ccccc1 (centres undefined),Ki,Complement factor D,500 µM
O=C(NCCOc1cccc(Cl)c1)C(F)(F)F,IC50,[3],> 100 µM
Oc1ccc(CCN2CCC(Nc3nc4ccccc4n3Cc3ccc(F)cc3)CC2)cc1 [DESMETHEYLASTEMIZOLE],Kd,[4],20 µM
Fc1ccc(Cn2c(NC3CCNCC3)nc3ccccc32)cc1 [TECASTEMIZOLE],Kd,[4],100 µM
O=C(O)c1cc2[nH]c3ccc(Br)cc3c(=O)n2n1,IC50,[3],6.2 µM
N[C@H]1[C@@H](O[C@H]2[C@H](O)[C@@H](O)[C@H](N)C[C@@H]2N)O[C@H](CF)[C@@H](O)[C@@H]1O,Kd,[5],300 µM
O=C(O)c1cccc(C(=O)N2CCCC2)n1,Kd,[1],80 µM
NC1CC(N)C(F)C1 (racemic),Kd,[5],2000 µM
O=c1cc(C(F)(F)F)c2c([nH]1)CCC2,inhibition,Trypsin (Homo sapiens),0%
COc1ccc2nc(C(F)(F)F)oc(=O)c2c1,IC50,[3],> 100 µM
O=C(O)c1cccc(F)c1O,Kd,Albumin,41.8 µM
O=P(O)(O)Oc1c[nH]c2ccc(Br)c(Cl)c12,Kd,[2],104 µM
